Measurements reported in publication PMC8799717, “Pharmacological targeting PIKfyve and tubulin as an effective treatment strategy for double-hit lymphoma” (Cell Death Discovery, 2022).

Experiments:
Assay in all cases: biochemical
Parameters in all cases: KINOMEscan active-site-directed competition binding panel, 468 kinases, percent of DMSO control at 1 uM
Conditions in all cases: KINOMEscan binding, percent of DMSO control; read-out: Ctrl%
AAK1 = AAK1 (Homo sapiens, UniProt Q2M2I8)
STK35 = STK35 (Homo sapiens, UniProt Q8TDR2)
PCTK1 = target: T1, PCTK1 (Homo sapiens, UniProt Q00536)
T1 construct: gene CDK16

CSNK1G1 = CSNK1G1 (Homo sapiens, UniProt Q9HCP0)
PLK4 = PLK4 (Homo sapiens, UniProt O00444)
ARK5 = target: T2, ARK5 (Homo sapiens, UniProt O60285)
T2 construct: gene NUAK1

MST2 = target: T3, MST2 (Homo sapiens, UniProt Q13188)
T3 construct: gene STK3

MAP3K1 = MAP3K1 (Homo sapiens, UniProt Q13233)
Chain of MAP3K1 (Q13233 whole entry): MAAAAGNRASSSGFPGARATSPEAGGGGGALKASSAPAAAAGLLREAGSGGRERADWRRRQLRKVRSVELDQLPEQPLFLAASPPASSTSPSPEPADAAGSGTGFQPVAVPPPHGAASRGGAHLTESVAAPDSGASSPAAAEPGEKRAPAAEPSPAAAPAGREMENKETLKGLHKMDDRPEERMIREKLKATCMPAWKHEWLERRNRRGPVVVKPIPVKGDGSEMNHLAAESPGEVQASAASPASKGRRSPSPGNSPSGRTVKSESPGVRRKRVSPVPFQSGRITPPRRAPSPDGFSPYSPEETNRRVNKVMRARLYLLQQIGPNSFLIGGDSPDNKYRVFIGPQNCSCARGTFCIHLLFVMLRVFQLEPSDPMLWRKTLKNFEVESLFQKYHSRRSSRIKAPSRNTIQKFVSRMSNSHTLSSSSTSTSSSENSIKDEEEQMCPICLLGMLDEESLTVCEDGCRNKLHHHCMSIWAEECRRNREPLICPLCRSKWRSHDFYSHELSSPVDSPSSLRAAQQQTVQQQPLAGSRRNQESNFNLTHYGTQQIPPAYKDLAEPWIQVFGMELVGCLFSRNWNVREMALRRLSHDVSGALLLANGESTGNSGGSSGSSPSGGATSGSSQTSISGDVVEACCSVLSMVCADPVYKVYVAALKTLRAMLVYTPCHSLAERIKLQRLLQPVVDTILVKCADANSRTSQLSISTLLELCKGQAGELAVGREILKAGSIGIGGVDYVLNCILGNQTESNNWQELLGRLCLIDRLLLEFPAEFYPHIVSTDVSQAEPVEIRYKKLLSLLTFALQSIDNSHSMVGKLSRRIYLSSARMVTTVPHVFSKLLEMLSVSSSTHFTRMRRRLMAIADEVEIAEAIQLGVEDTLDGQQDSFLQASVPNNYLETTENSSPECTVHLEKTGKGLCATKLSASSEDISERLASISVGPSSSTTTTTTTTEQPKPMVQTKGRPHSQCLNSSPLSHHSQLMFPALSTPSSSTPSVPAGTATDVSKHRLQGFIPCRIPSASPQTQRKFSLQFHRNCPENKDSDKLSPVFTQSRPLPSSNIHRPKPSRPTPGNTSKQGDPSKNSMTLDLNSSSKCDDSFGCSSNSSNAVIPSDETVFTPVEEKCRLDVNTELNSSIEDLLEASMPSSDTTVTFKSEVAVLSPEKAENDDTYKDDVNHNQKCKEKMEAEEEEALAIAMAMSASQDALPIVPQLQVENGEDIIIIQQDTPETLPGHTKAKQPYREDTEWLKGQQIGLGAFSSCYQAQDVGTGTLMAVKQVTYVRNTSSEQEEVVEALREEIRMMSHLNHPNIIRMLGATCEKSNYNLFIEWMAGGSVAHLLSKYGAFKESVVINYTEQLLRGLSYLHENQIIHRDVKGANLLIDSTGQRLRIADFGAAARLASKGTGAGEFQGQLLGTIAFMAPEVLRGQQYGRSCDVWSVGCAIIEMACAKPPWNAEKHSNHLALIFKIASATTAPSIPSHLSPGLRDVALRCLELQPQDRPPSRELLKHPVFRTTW

ERK2 = target: T4, ERK2 (Homo sapiens, UniProt P28482)
T4 construct: gene MAPK1

TXK = TXK (Homo sapiens, UniProt P42681)
Chain of TXK (P42681 whole entry): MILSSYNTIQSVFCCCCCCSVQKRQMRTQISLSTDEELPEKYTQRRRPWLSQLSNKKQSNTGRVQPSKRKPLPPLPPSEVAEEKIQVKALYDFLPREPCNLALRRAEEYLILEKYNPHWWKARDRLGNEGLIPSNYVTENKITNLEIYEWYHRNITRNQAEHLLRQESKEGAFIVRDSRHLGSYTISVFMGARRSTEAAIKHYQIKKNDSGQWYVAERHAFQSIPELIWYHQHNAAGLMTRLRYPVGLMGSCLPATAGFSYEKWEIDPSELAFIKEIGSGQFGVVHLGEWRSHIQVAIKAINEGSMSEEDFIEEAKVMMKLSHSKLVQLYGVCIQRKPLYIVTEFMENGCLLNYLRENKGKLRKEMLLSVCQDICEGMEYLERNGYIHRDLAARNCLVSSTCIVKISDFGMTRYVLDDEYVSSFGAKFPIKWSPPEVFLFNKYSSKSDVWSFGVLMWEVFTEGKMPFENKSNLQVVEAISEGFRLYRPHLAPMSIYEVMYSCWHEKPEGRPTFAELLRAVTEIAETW

BRAF = BRAF (Homo sapiens, UniProt P15056)
Chain of BRAF (P15056 whole entry): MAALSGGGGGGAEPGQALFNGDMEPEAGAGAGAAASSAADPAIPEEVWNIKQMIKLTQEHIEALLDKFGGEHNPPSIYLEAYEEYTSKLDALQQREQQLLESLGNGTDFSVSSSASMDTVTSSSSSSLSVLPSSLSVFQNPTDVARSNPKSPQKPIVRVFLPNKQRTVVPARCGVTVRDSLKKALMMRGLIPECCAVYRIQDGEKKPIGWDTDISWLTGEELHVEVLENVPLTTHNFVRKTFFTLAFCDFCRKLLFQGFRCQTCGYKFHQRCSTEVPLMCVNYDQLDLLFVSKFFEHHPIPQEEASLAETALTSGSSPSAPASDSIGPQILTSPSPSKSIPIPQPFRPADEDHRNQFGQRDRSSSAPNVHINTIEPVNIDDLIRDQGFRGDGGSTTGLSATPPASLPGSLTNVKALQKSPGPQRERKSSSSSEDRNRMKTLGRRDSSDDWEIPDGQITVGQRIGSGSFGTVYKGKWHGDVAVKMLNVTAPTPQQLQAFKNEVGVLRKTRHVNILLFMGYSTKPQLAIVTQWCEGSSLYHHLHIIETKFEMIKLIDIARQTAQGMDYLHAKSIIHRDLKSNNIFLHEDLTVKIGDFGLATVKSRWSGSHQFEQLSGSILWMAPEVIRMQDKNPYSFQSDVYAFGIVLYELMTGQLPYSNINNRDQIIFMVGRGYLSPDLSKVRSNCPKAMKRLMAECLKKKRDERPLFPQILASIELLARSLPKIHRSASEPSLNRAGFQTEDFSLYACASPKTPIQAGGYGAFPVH

MEK3 = target: T5, MEK3 (Homo sapiens, UniProt P46734)
T5 construct: gene MAP2K3

KIT(V559D) = KIT(V559D) (Homo sapiens, UniProt P10721, V559D)
DYRK2 = DYRK2 (Homo sapiens, UniProt Q92630)
ULK3 = ULK3 (Homo sapiens, UniProt Q6PHR2)
AMPK-alpha2 = target: T6, AMPK-alpha2 (Homo sapiens, UniProt P54646)
T6 construct: gene PRKAA2

MET(M1250T) = MET(M1250T) (Homo sapiens, UniProt P08581, M1250T)
Chain of MET(M1250T) (P08581 whole entry M1250T): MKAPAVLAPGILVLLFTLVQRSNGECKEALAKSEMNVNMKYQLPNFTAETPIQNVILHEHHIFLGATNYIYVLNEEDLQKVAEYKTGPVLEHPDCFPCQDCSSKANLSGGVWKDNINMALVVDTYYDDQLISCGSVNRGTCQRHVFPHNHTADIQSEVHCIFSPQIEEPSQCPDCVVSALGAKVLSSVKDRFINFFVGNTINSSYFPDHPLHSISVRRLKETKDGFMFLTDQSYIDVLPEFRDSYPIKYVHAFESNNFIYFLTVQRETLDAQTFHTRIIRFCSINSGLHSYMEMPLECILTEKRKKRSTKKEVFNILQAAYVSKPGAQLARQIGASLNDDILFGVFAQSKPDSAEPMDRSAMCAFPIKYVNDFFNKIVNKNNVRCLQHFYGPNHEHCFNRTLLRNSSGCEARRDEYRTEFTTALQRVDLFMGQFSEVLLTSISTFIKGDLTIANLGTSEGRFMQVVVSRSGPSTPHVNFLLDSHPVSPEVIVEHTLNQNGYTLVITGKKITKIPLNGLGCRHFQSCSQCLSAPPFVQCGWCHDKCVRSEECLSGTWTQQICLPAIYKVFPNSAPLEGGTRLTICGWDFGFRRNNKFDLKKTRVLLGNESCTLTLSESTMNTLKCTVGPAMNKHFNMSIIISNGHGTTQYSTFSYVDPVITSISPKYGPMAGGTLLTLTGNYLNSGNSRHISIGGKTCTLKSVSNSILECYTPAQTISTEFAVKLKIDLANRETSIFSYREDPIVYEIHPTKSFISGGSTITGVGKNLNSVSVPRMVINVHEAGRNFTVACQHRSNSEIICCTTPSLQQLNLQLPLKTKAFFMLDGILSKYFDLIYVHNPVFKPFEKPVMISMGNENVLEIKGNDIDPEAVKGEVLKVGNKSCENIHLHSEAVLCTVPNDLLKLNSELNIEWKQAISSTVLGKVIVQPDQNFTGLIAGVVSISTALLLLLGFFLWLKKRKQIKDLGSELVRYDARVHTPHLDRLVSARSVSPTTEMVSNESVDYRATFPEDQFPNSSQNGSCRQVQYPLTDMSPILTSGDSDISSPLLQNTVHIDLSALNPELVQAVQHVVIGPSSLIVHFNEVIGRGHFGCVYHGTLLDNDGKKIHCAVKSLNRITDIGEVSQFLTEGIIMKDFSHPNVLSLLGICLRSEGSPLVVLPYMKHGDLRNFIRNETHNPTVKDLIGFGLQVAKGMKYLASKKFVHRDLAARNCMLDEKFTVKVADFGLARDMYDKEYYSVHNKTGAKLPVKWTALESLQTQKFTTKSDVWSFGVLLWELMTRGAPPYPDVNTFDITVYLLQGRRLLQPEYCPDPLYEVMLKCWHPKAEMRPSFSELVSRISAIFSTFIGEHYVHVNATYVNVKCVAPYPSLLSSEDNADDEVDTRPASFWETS

CSNK1A1 = CSNK1A1 (Homo sapiens, UniProt P48729)
Chain of CSNK1A1 (P48729 whole entry): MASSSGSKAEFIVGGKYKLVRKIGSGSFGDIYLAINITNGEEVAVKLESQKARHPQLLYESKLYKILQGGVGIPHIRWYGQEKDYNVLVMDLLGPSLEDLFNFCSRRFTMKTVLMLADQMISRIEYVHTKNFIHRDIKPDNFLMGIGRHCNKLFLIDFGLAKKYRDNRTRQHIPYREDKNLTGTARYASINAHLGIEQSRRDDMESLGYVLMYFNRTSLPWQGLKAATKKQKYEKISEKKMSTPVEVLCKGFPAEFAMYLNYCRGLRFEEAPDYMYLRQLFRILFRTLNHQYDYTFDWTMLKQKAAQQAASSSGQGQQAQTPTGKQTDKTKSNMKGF

MKNK1 = MKNK1 (Homo sapiens, UniProt Q9BUB5)
TBK1 = TBK1 (Homo sapiens, UniProt Q9UHD2)
FLT3(ITD,F691L) = FLT3(ITD,F691L) (Homo sapiens, UniProt P36888, F691L/ITD)
Chain of FLT3(ITD,F691L) (P36888 564-993 F691L): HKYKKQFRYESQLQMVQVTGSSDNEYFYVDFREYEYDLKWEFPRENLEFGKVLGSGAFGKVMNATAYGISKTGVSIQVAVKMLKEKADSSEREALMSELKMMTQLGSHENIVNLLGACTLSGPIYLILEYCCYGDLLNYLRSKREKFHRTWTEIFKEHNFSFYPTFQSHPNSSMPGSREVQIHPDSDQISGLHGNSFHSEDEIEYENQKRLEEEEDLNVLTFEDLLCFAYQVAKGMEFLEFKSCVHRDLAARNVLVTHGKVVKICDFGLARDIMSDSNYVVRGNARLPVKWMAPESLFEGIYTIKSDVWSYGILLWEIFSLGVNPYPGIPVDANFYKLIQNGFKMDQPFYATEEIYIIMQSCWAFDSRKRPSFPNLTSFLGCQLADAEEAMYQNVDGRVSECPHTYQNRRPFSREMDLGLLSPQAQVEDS

CAMK1 = CAMK1 (Homo sapiens, UniProt Q14012)
DLK = target: T7, DLK (Homo sapiens, UniProt Q12852)
T7 construct: gene MAP3K12

PRKG1 = PRKG1 (Homo sapiens, UniProt Q13976)

## Cc1ccc(NC(=O)c2cccc(C(F)(F)F)c2)cc1Nc1cc(-c2cccnc2)nc2[nH]ccc12 [HZX-02-059]
AAK1
  remaining binding at 1 µM: 87%
STK35
  remaining binding at 1 µM: 80%
PCTK1
  remaining binding at 1 µM: 100%
CSNK1G1
  remaining binding at 1 µM: 83%
PLK4
  remaining binding at 1 µM: 91%
ARK5
  remaining binding at 1 µM: 100%
MST2
  remaining binding at 1 µM: 97%
MAP3K1
  remaining binding at 1 µM: 56%
ERK2
  remaining binding at 1 µM: 100%
TXK
  remaining binding at 1 µM: 78%
BRAF
  remaining binding at 1 µM: 18%
MEK3
  remaining binding at 1 µM: 83%
KIT(V559D)
  remaining binding at 1 µM: 0.9%
DYRK2
  remaining binding at 1 µM: 88%
ULK3
  remaining binding at 1 µM: 91%
AMPK-alpha2
  remaining binding at 1 µM: 90%
MET(M1250T)
  remaining binding at 1 µM: 100%
CSNK1A1
  remaining binding at 1 µM: 77%
MKNK1
  remaining binding at 1 µM: 100%
TBK1
  remaining binding at 1 µM: 100%
FLT3(ITD,F691L)
  remaining binding at 1 µM: 100%
CAMK1
  remaining binding at 1 µM: 100%
DLK
  remaining binding at 1 µM: 100%
PRKG1
  remaining binding at 1 µM: 82%
